Assay results reported in article PMC7113684 (Antiviral Research, 2017).
Structures can show the parent of a compound that is named as a salt.

Tests used:
SARS-CoV 3CL^pro = SARS-CoV 3CL^pro (Severe acute respiratory syndrome coronavirus, UniProt P0C6X7); details: cited from earlier work
Huh-7 cells = details: human
in vitro = details: human

Row | Structure (SMILES) | activity against SARS-CoV 3CL^pro (SARS-CoV 3CL^pro) | decrease of viability of mock cells (Huh-7 cells) [%] | CC50 (in vitro) [µM]
1 | CCOC(=O)/C=C/[C@H](C[C@@H]1CCNC1=O)NC(=O)[C@@H](CC(=O)[C@@H](NC(=O)c1cc(C)on1)C(C)C)Cc1ccc(F)cc1 [AG7088] | inactive |  | 
2 | Nc1ccn([C@@H]2O[C@H](CO)[C@@H](O)C2(F)F)c(=O)n1 [GEM, Gemcitabine hydrochloride] |  | ≥ 20 | > 100
